What was measured:
[1] = system: Streptomyces ravidus NRRL 11,300; assay: Streptomycin resistance of the producing organism; settings: 10 μg streptomycin per ml
[2] = Solubility in organic solvents
[3] = Acute intraperitoneal LD50 in mice; settings: mouse, in vivo, ip, LD50, acute, per body weight
[4] = system: mice; assay: Acute intraperitoneal LD50 in mice; settings: acute, i.p., per body weight
[5] = system: colon 38 tumor; assay: Colon 38 tumor weight in mice; assay type: in vivo; settings: dose level 25 mg/kg; evaluated on 20th day of implantation in mice
Method: (j) Ravidomycin causes 50% reduction in colon 38 tumor weight at dose level of 25 mg/kg. evaluated on 20th day of implantation in mice.

Row | SMILES | resistance of Streptomyces ravidus to streptomycin [1] | resistance of Streptomyces ravidus to streptomycin ([1]; listed as Streptomycin) | solubility ([2]; in acetone, methanol, ethanol, chloroform) | solubility ([2]; in diethyl ether) | LD50 [3] [mg/kg] | LD50 [4] | LD50 ([4]; listed as Ravidomycin) [mg/kg] | reduction in colon 38 tumor weight [5] [%]
1 | [H]/N=C(/N)N[C@H]1[C@H](O)[C@@H](O)[C@H](O[C@@H]2O[C@@H](C)[C@](O)(C=O)[C@H]2O[C@@H]2O[C@@H](CO)[C@H](O)[C@@H](O)[C@@H]2NC)[C@@H](N/C(N)=N\[H])[C@@H]1O [streptomycin] | resistant | Resistant | – | – | – | – | – | –
2 | C=Cc1cc(OC)c2c(c1)c(=O)oc1c2cc(OC)c2c(O)ccc(C3OC(C)C(OC(C)=O)C(N(C)C)C3O)c21 (centres unmarked) [ravidomycin] | – | – | soluble | sparingly soluble | > 400 | greater than 400 mg/kg | 400 | 50

From patent publication US4230692A, “Ravidomycin and process of preparation” (Ayerst McKenna & Harrison, Inc., priority 1978, dated 1980)
